# In paper PMC9814779, “A triple farnesoid X receptor and peroxisome proliferator-activated receptor α/δ activator reverses hepatic fibrosis in diet-induced NASH in mice” (Communications Chemistry, 2020):
# Assays:
# [1] = tested on: choline-deficient, L-amino acid-defined, high-fat diet-induced NASH in mice; set-up: method as in PMID 29164820; conditions: cited from earlier work
# [2] = target: T1, human PPARα ligand-binding domain (Gal4 chimera) (Homo sapiens, UniProt Q07869); assay: Gal4 hybrid reporter gene assay, PPARα; type: cell-based; set-up: Emax: dose or concentration left out as unconfirmed
# T1 construct: coding for the hinge region and LBD of the canonical isoform of the respective nuclear receptor; expressed in transfected cells; host or cells: HEK293T
# T1 sequence (Q07869 239-466 limits assumed): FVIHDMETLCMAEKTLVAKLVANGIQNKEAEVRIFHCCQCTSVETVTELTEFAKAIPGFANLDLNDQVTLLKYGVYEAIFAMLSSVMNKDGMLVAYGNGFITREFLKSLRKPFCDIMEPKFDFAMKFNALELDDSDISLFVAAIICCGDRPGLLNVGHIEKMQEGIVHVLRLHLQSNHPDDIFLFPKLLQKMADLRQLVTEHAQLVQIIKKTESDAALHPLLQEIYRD
# [3] = target: T2, human PPARδ ligand-binding domain (Gal4 chimera) (Homo sapiens, UniProt Q03181); assay: Gal4 hybrid reporter gene assay, PPARδ; type: cell-based; set-up: Emax: dose or concentration left out as unconfirmed
# T2 construct: coding for the hinge region and LBD of the canonical isoform of the respective nuclear receptor; expressed in transfected cells; host or cells: HEK293T
# T2 sequence (Q03181 211-439 limits assumed): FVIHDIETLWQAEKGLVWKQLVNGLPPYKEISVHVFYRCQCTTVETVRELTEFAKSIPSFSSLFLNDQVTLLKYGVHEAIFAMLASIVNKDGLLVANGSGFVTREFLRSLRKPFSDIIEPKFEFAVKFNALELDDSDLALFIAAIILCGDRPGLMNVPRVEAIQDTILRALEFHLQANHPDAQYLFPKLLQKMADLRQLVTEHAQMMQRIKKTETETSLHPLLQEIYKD
# [4] = target: T3, human PPARγ ligand-binding domain (Gal4 chimera) (Homo sapiens, UniProt P37231); assay: Gal4 hybrid reporter gene assay, PPARγ; type: cell-based; set-up: Emax: dose or concentration left out as unconfirmed
# T3 construct: coding for the hinge region and LBD of the canonical isoform of the respective nuclear receptor; expressed in transfected cells; host or cells: HEK293T
# T3 sequence (P37231 238-503 limits assumed): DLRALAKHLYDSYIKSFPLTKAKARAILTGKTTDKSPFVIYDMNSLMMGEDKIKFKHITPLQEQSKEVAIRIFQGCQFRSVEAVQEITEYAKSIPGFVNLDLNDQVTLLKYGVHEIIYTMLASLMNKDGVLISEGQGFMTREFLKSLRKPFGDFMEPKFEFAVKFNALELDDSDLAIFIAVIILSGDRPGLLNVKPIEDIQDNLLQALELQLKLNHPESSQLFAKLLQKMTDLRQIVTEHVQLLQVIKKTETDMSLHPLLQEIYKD
# [5] = target: T4, human FXR:retinoid X receptor (RXR) heterodimer (Homo sapiens, UniProt Q96RI1); assay: Full-length FXR reporter gene assay (BSEP response element) in HeLa cells; type: cell-based; set-up: Emax: dose or concentration left out as unconfirmed; conditions: HeLa
# T4 construct: pcDNA3-hFXR[32] and pSG5-hRXR[33] served for receptor overexpression in the full-length FXR assay; expressed in transfected cells; host or cells: HeLa
# [6] = tested on: nuclear receptors related to PPARs and FXR (LXRα/β, RXRα/β/γ, RARα/β/γ, VDR, CAR); conditions: previous studies; cited from earlier work
# STAM NASH = conditions: cited from earlier work
# [7] = tested on: (foz/foz) mice under atherogenic diet; conditions: without a pronounced effect on hepatic inflammation; cited from earlier work
# [8] = tested on: FXR- and PPAR-regulated gene expression in HepG2 cells; assay: FXR- and PPAR-regulated gene expression in HepG2 cells (qRT-PCR); type: cell-based, human; conditions: HepG2, 1 µM, 12 h, vs. vehicle-treated cells
# Experimental: HepG2 cells (DSMZ) were grown in DMEM high glucose, supplemented with 10% FCS, 1 mM SP, penicillin (100 U/mL), and streptomycin (100 μg/mL) at 37 °C and 5% CO2 and seeded in 6-well plates (2 × 10^6 per well). After 24 h, medium was changed to Minimal Essential Medium supplemented with 1% charcoal-stripped FCS, penicillin (100 U/mL), streptomycin (100 μg/mL), and 2 mM L-glutamine. After an additional 24 h, cells were incubated with test compound 41 (0.1 µM, 0.3 µM, 1 μM), OCA (1 μM), or elafibranor (1 µM) dissolved in the same medium with 0.1% DMSO or medium with 0.1% DMSO alone as untreated control for 12 h, harvested, washed with cold phosphate-buffered saline (PBS), and then directly used for RNA extraction. C2C12 cells (American Type Culture Collection, ATCC) were grown in DMEM high glucose, supplemented with 10% FCS, 1 mM SP, penicillin (100 U/mL), and streptomycin (100 μg/mL) at 37 °C and 5% CO2 and seeded in 6-well plates (1 × 10^6 per well). Upon reaching confluence, medium was changed to Eagle’s Minimal Essential Medium supplemented with 2% horse serum, penicillin (100 U/mL), streptomycin (100 μg/mL), and 2 mM L-glutamine. Cells were then differentiated in this medium for 5 days before incubation with test compounds 41 (1 μM) or L165,041 (1 μM) dissolved in the same medium with 0.1% DMSO or medium with 0.1% DMSO alone as untreated control for 8 h. Cells were harvested, washed with cold PBS, and then directly used for RNA extraction. Total RNA was extracted from HepG2 cells or C2C12 cells using the total RNA Mini Kit (R6834-02, Omega Bio-Tek, Inc., Norcross, GA, USA). Two micrograms of extracted RNA were then reverse-transcribed into cDNA with the High-Capacity cDNA Reverse Transcription Kit (4368814, Thermo Fischer Scientific, Inc.). FXR- and PPAR-regulated gene expression was then studied by quantitative real-time PCR (qRT-PCR) analysis with a StepOnePlus System (Life Technologies, Carlsbad, CA, USA) using PowerSYBRGreen (Life Technologies; 12.5 μL per well). Each sample was set up in duplicates and repeated in four independent experiments. Data were analyzed by the comparative ΔΔCT method with glyceraldehyde 3-phosphate dehydrogenase (GAPDH) as reference gene. The following primers were used for HepG2 cells (human genes): hGAPDH: 5 ′-ATATGATTCCACCCATGGCA (fw), 5′-GATGATGACCCTTTTGGCTC (rev); hSHP: 5′-GCTGTCTGGAGTCCTTCTGG (fw), 5′-CCAATGATAGGGCGAAAGAAGAG (rev); hCYP7A1: 5′-CACCTTGAGGACGGTTCCTA (fw), 5′-CGATCCAAAGGGCATGTAGT (rev); hBSEP: 5′-CATGGTGCAAGAAGTGCTGAGT (fw), 5′-AAGCGATGAGCAACTGAAATGAT (rev); hACOX: 5′-ACT CGC AGC CAG CGT TAT G (fw), 5′-AGG GTC AGC GAT GCC AAA C (rev); hPDK4: 5′-AGAGCCTGATGGATTTGGTG (fw), 5′-GCTTGGGTTTCCTGTCTGTG (rev); hCPT1: 5′-ACAGTCGGTGAGGCCTCTTAT (fw), 5′-TCTTGCTGCCTGAATGTGAGT (rev); hFGF21: 5′-ATGGATCGCTCCACTTTGACC (fw), 5′-GGGCTTCGGACTGGTAAACAT (rev). The following primers were used for C2C12 cells (murine genes)[36]: mGAPDH: 5′-CGACTTCAACAGCAACTCCCACTCTTCC (fw), 5′-TGGGTGGTCCAGGGTTTCTTACTCCTT (rev); mPCK: 5′-TGTTTACTGGGAAGGCATCG (fw), 5′-CAGAATCTCGAGTTGGGATGG (rev); mGLUT3: 5′-CGTCCTTGAAGATTCCTGTTGA (fw), 5′-GTC ACC CAA CTA CGT CCA G (rev); mLPL: 5′-GTCAGGTTCTCTCTTGTACAGG (fw), 5′-TCTAACTGCCACTTCAACCAC (rev).
# HEK293T and U2OS cells = assay: Multiplex high-content live-cell toxicity assay; type: cell-based; conditions: seven concentrations between 100 nM and 100 µM; 2, 12 and 24 h
# Experimental: Before proof-of-concept in vivo evaluation, we profiled stability and cytotoxicity of the triple modulator 41 in vitro. […] To determine cytotoxicity, we employed a multiplex high-content life-cell imaging screen[24] on HEK293T and U2OS cells. For this, the cells were treated with fluorescent probes to detect Annexin V as apoptosis marker (Annexin V Alexa488), dead cells (Yo-Pro3), and DNA/nucleus (Hoechst33342). Cells were then incubated with 41, OCA, or elafibranor at seven concentrations between 100 nM and 100 µM, and cell health was determined by fluorescence imaging after 2, 12, and 24 h (Fig. 6g–i and Supplementary Fig. 5).
# Supplementary Methods for in Vitro Characterization
# Cytotoxicity was assessed in a high content screen on two different cell lines, HEK293T (ATCC® CRL-1573™) and U2OS (ATCC®HTB-96™), essentially as described previously6. In brief, cells were cultured in DMEM plus L-Glutamine (high glucose) supplemented with 10 % FBS (Gibco) and Penicillin/Streptomycin (Gibco). […]
# After 2 h, 12 h and 24 h, cellular shape and fluorescence was analyzed on an automated, high-content confocal microscope (CQ1, Yokogawa). […]
# 50 ms, 40%; bright field, 300ms, 100% transmission, one centered field per well, 7 z stacks per well with 55 µm spacing. Images were analyzed with the Pathfinder software (Yokogawa). Cells were detected and gated as previously described6. […]
# The solubilized test compound (5 μL, final concentration 10 μM in phosphate buffer (0.1 M, pH 7.4)) was preincubated at 37 °C in 432 μL of phosphate buffer (0.1 M, pH 7.4) together with a 50 μL NADPH regenerating system (30 mM glucose-6-phosphate, 4 U/mL glucose-6-phosphate dehydrogenase, 10 mM NADP, 30 mM MgCl2). […] The supernatants were analyzed and test compound was quantified by HPLC: mobile phase: MeOH 83%/H2O 17%/formic acid 0.1%; flow-rate: 1 mL/min; stationary phase: MultoHigh Phenyl phase, 5 μm, 250×4, precolumn, phenyl, 5 μm, 20×4; detection wavelength: 330 and 254 nm; injection volume: 50 μL. […]
# [9] = tested on: diet-induced mouse model of NASH; conditions: cited from earlier work
# T4 sequence (P19793 whole entry): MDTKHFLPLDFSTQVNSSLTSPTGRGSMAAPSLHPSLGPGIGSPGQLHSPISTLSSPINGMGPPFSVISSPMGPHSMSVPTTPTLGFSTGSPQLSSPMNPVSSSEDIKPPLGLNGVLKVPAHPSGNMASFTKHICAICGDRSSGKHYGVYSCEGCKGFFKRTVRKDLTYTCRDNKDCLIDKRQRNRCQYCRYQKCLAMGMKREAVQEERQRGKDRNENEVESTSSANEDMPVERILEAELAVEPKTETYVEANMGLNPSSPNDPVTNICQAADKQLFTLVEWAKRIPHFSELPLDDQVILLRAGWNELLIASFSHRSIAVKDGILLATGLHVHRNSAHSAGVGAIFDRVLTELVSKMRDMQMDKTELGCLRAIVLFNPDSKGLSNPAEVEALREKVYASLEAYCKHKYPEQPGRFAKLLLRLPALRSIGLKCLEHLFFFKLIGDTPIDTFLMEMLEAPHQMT
# T4 sequence (Q96RI1 whole entry): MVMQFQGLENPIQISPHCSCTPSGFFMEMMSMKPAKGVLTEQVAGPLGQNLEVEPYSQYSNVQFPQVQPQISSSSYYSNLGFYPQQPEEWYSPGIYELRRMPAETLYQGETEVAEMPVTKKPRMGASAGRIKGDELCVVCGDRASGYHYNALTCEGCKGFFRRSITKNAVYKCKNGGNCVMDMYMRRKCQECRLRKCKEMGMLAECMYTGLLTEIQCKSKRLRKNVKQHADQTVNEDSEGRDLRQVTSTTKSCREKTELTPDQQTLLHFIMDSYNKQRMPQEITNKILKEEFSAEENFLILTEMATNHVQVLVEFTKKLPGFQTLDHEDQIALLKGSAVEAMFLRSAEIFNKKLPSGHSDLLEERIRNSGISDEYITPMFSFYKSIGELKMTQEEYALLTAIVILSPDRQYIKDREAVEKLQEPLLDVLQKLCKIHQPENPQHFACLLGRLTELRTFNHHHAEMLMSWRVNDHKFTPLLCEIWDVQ
compound,measurement,setting,value
CCO[C@@H](Cc1ccc(OCCn2c(C)ccc2-c2ccc(SC)cc2)cc1)C(=O)O [saroglitazar],anti-steatosis efficacy,[1],stronger anti-steatosis efficacy than the selective agents fenofibrate (PPARα) and pioglitazone (PPARγ)
O=C(O)Cc1cccc(NC(=O)c2ccccc2NC(=O)c2ccc3ccccc3c2)c1 [compound 5],EC50,"[2]; EC50 [μM] PPARα, HEK293T, mean ± SEM, n = 3",5 ± 1 µM
same,Emax,[2]; read-out: max. rel. act. PPARα,37%
same,EC50,"[3]; EC50 [μM] PPARδ, HEK293T, mean ± SEM, n = 3",4.9 ± 0.9 µM
same,Emax,[3]; read-out: max. rel. act. PPARδ,34%
same,EC50,[4],16 ± 1 µM
same,Emax,[4]; read-out: max. rel. act. PPARγ,14%
same,Emax,[5]; read-out: max. rel. act. FXR,21%
same,EC50,"[5]; mean ± SEM, n = 3, read-out: EC50 [μM] FXR",2.5 ± 0.2 µM
same,selectivity over related nuclear receptors,[6],selective over related nuclear receptors
CC[C@@H](Oc1cccc(CN(CCCOc2ccc(OC)cc2)c2nc3ccccc3o2)c1)C(=O)O [pemafibrate],effects in STAM NASH,STAM NASH,counter hepatocyte ballooning in STAM NASH without affecting hepatic steatosis and inflammation
CCO[C@H](COc1ccc(C(F)(F)F)cc1)CSc1ccc(OCC(=O)O)c(C)c1 [seladelpar],effects in (foz/foz) mice under atherogenic diet,[7],improved steatosis and hepatocyte ballooning
CSc1ccc(C(=O)/C=C/c2cc(C)c(OC(C)(C)C(=O)O)c(C)c2)cc1 [elafibranor],"mRNA expression of FXR-regulated genes (BSEP, SHP, CYP7A1)",[8],no effect on FXR activity
same,"mRNA expression of PPAR-regulated genes (ACOX, PDK4, CPT1, FGF21)",[8],strongly promoted the expression of PPAR-regulated genes
same,"cytotoxicity (cell health, apoptosis, necrosis, lysis)",HEK293T and U2OS cells,non-toxic up to 100 µM concentration over 24 h
same,anti-steatotic effect,"[9]; OCA 30 mg/kg, OCA/elafibranor 30 mg/kg + 10 mg/kg, elafibranor 10 mg/kg",less pronounced
same,anti-fibrotic activity,"[9]; equivalent, previously reported study",only weak anti-fibrotic activity compared to vehicle
